In patent publication US8343912B2, “Antibiotic compositions for the treatment of gram negative infections” (priority 2008, dated 2013):
Numbered stars: 1 amine (or outer) side, 2 acyl side, 3 side chain; on linkers, the order of the positions; unused ones are H or OH. Bridge positions count the residues as written; N and C are the ends. Square brackets hold non-standard residues; d marks the D form. Peptide text beside a SMILES is read from it. * marks the point of attachment. NH(2-ClPh) = Clc1ccccc1N*; Dab = NCC[C@H](N)C(=O)O; CO = O=C([*:1])[*:2]

Key:
[1] = Dissociation constant (pKa)
[2] = system: Rat kidney proximal tubule cells; assay: Cell culture cytotoxicity assay (ATP bioluminescence, LLC-PK1); format: cell-based; settings: LLC-PK1, 24 hours, ATP readout
Description: Day 1: 1×10^5 to 2×10^5 cellswere inoculated (Cell line: LLC-PK1) per flask, containing 4 mL/T25 flask of medium DMEM-F12 (50/50) media supplemented with 10% FBS (Fetal Bovine Serum). The cells were then incubated at 37° C., 5% CO2, 80% RH.
Day 4: The cell cultures were examined to determine 80% confluency. To trypsinize of the 80% confluent flasks, 4 mL of DMEM-F12-10% FBS media was prepared per flask. The media was aspirated from the flask and 5 mL of Versene was added to rinse the flask. The Versene was aspirated and 2 mL of triple Express solution (trypsin solution) was added. The cells were incubated for 5 min at room temperature and examined via microscopy for the rounding of the cells and their detachment. To speed up the reaction, the flask can be incubated at 37° C. for 3 minutes. 4 mL of media (DMEM-F12-10%FBS) was added to stop the reaction. Using a 5 mL pipette, the completed reaction was pipetted up and down to ensure that the cells were properly detached from the flask and from each others. The cell number was counted using a hemocytometer slide. 100 μL of cell suspension was transferred to a tube and 100 μL of Trypan Blue was added. Inoculum for 96 well is 10,000 cells per well. For one 96 well plate, 26.3 μL×110 well=2893 μL total. 2.9 mL of cell suspension was mixed with 8.1 mL of media DMEM-F12-10% FBS and 100 μL was distributed to each well using a multichannel pipetter. The plate was then Incubated for 24 h at 37° C.
Day 5: DMEM-F12 (no FBS) medium was dispensed into tubes with the test article to achieve final concentrations of […]. The 96 well plate was taken off the incubator and media was removed from each well using multichannel pipetter. 80 μL of serially diluted compounds of Formula (I) was added to each well. Every set of concentration was done in triplicate. Media and positive controls were added to each plate and the plates were incubated for 24 hours at 37° C.
Day 6: The plates were taken from the incubator, the media was removed from each well, and 100 μL of fresh media DMEM-F12 (this is equivalent to a rinse and the media can be replaced with PBS) was added. The media is then removed and 80 μL of cell lysis solution is added. After 5 minutes, 80 μL of sterile filtered high quality water was added to each well. Using a white or black 96 well reaction plate, 80 μL of 25× diluted ATP mix reagent (Sigma Bioluminescent Somatic Cell Assay Kit [cat #FL-ASC]) was added into one column. 80 μL of diluted ATP standards (dilutions used: 250, 500, 1000, 2000 and 4000) was added and the plate was read immediately in the topcount with a 2 second read time. In another white or black 96 well reaction plate, 80 μL of 25× diluted ATP mix reagent (plate A) was added and 80 μL of lysis-water solution was transferred to each column of plate A. The plate was then read immediately in the topcount with a 2 second read time. This process was repeated for next consecutive plate and the EC50 for certain compounds of Formula I were calculated and provided in Table 4.

CC(C)C[C@@H]1NC(=O)[C@@H](Cc2ccccc2)NC(=O)[C@H](CCN)NC(=O)[C@@H](NC(=O)[C@H](CCN)NC(=O)[C@@H](NC(=O)[C@H](CCN)NC(=O)Nc2ccccc2Cl)[C@@H](C)O)CCNC(=O)[C@H]([C@@H](C)O)NC(=O)[C@H](CCN)NC(=O)[C@H](CCN)NC1=O [Compound 5, (S)-4-amino-N-((2S,3R)-1-((S)-4-amino-1-oxo-1-((3S,6S,9S,12S,15R,18S,21S)-6,9,18-tris(2-aminoethyl)-15-benzyl-3-((R)-1-hydroxyethyl)-12-isobutyl-2,5,8,11,14,17,20-heptaoxo-1,4,7,10,13,16,19-heptaazacyclotricosan-21-ylamino)butan-2-ylamino)-3-hydroxy-1-oxobutan-2-yl)-2-(3-(2-chlorophenyl)ureido)butanamide] ({NH(2-ClPh)-CO}-[Dab]T[Dab][Dab][Dab][dF]L[Dab][Dab]T; lactam 4-C)
pKa [1]: 8.17
EC50 Rat kidney proximal tubule cells [2]: >1000 micrograms/ml
